According to ChEMBL document CHEMBL1201862, “PubChem BioAssay data set” (2004):
The source made the active and inactive calls.

How the values were obtained:
[1] = biological target: T1, Voltage-gated N-type calcium channel alpha-1B subunit/Amyloid beta A4 precursor protein-binding family A member 1 (Homo sapiens, UniProt Q00975+Q02410); assay type: protein assay
[2] = biological target: T1, Voltage-gated N-type calcium channel alpha-1B subunit/Amyloid beta A4 precursor protein-binding family A member 1; assay type: protein assay; remark: listed apart in the source
[3] = alpha-synuclein stem-loop luciferase translation blockers – H4 neuroglioma cells, luminescence, confirmation (AID 1988); assay type: functional, cell-based
[4] = biological target: T2, Microphthalmia-associated transcription factor (Homo sapiens, UniProt O75030); experiment: reducers of TRPM1 reporter luminescence, concentration series – cell-based, SK-MEL-5, cherry-picked, set 3, MITF inhibitor project, dose response (AID 493073); assay type: functional;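 note: SK-MEL-5 melanoma cells with luciferase driven by the MITF target TRPM1 promoter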
T2 sequence (O75030 whole entry): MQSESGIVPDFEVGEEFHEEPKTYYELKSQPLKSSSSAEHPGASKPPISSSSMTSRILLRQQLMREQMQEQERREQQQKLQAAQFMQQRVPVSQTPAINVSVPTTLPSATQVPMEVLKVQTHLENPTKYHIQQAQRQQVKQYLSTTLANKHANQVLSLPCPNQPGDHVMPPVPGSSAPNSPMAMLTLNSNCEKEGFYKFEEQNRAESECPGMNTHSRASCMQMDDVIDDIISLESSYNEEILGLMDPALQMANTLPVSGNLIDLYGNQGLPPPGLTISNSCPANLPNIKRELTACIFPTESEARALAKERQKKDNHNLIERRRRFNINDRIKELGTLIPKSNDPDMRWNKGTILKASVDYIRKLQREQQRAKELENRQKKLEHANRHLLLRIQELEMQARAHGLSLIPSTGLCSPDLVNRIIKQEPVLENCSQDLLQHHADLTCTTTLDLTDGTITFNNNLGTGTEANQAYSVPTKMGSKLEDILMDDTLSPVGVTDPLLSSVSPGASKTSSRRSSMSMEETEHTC

[5] = blockade of melanocortin 4 receptor signaling – cell-based, plate reader, cherry pick, counter-screen for LGR2 antagonist project, dose response (AID 743444); assay type: functional;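 note: transfected HEK 293 cells stimulated with alpha-MSH peptide; potency of inhibitors of the alpha-MSH evoked signal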
[6] = toxicity toward HepG2 liver cells – cell-based, plate reader, cherry-pick, antagonist series, cytotoxicity control, dose response (AID 743416); assay type: functional
[7] = A549 cell cytotoxicity, dose response, cytotoxicity control, plate reader, cherry-pick, antagonist series (AID 743412); assay type: functional, cell-based
[8] = blockers of bursicon-stimulated LGR2 cAMP reporter – cell-based, HEK293, CRE-luciferase reporter, cherry pick, set 2, dose response (AID 743343); assay type: functional;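 note: transfected cells were stimulated with diluted bursicon conditioned medium after compound addition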
[9] = viability loss in HEK293 cells – cell-based, plate reader, cherry-picked samples, cytotoxicity control, dose response (AID 743446); assay type: functional
[10] = Luminescence Cell-Based Dose Response HTS to Identify Inhibitors of 5'UTR Stem-Loop Driven Prion Protein mRNA Translation in H4 Neuroglioblastoma Cells. [Related pubchem assays: 1827 (Project Summary), 1813 (Primary HTS)]; assay type: functional
[11] = luciferase reporter signal suppression in cells – H4 neuroglioma cells, luminescence, dose response (AID 1990); assay type: functional, cell-based
Prothrombin = Prothrombin (Homo sapiens, UniProt P00734); experiment: Thrombin 1536 HTS Dose Response Confirmation. [Related pubchem assays: 1046 (Thrombin 1536 HTS; hits were confirmed in this assay)]; assay type: functional
Ephrin type-A receptor 4 = Ephrin type-A receptor 4 (Mus musculus, UniProt Q03137); experiment: EphA4 ligand-binding antagonists – biochemical, colorimetric, mouse EphA4, primary screen (AID 689); assay type: functional
Chain of Ephrin type-A receptor 4 (Q03137 whole entry, the tested form may be a part): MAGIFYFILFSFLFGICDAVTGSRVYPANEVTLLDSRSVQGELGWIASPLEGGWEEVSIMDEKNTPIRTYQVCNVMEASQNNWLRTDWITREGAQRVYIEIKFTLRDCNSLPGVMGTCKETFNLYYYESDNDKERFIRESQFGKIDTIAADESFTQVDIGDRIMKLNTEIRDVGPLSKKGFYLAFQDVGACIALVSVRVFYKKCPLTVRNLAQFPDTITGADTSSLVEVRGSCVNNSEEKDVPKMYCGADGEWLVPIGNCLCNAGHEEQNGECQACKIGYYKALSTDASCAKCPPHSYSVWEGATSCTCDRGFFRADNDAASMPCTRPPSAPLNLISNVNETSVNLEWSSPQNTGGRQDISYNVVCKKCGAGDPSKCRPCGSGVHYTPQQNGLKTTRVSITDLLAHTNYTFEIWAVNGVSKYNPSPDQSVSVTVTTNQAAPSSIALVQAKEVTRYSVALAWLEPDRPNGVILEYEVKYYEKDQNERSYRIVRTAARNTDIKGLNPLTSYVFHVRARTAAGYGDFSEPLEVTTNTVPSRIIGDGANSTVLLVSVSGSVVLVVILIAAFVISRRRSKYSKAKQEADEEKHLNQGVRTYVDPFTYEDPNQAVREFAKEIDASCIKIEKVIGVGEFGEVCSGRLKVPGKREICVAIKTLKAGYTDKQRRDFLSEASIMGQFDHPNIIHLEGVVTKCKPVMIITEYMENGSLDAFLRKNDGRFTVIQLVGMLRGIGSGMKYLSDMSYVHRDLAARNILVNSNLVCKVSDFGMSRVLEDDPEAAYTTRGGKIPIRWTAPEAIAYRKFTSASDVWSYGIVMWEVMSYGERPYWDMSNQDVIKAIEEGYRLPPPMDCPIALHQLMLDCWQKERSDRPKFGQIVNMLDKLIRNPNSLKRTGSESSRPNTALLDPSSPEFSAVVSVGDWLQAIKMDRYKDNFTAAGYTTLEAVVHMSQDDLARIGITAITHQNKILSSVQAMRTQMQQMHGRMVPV

[12] = off-target signal loss in HeLa-CEM21 co-culture – HeLa F-luc CTL cells, cherry-picked, counter-screen for HIV-1 Env fusion inhibitor project, dose response (AID 652040); assay type: functional, cell-based;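 note: potency for signal decrease marking cytotoxic or nonspecific inhibition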
[13] = HIV-1 AD8 envelope cell-cell fusion blockers – cherry-pick, dose response (AID 652062); assay type: functional, cell-based;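 note: luciferase signal from cell-cell fusion driven by HIV-1 clade B AD8 Env; potency is for inhibitors of fusion seen as a drop in luminescence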
[14] = blockers of HIV-1 ZM109 envelope-driven cell-cell fusion – HeLa effector, CEM target cells, luciferase, cherry-pick, dose response (AID 652058); assay type: functional, cell-based;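 note: luciferase signal from HIV-1 Env mediated cell-cell fusion of effector and target cells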
[15] = viability loss in CEM21 cells – cell-based, CellTiter-Glo luminescence, cherry-picked, cytotoxicity control for viral fusion inhibitor project, dose response (AID 652042); assay type: functional;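 note: potency for signal decrease meaning cytotoxicity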
[16] = blockers of HIV-1 envelope-mediated cell-cell fusion – cherry-pick, dose response (AID 652057); assay type: functional, cell-based
[17] = intracellular Trypanosoma cruzi inhibitors in host cells – cell-based, plate reader, cherry-pick samples, set 3, dose response (AID 651818); assay type: functional;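 note: compounds incubated with infected cells for about four days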
cells [18] = assay type: functional, cell-based
[19] = biological target: T3, Trace amine-associated receptor 1 (Homo sapiens, UniProt Q96RJ0); experiment: Counterscreen for agonists of the human trace amine associated receptor 1 (hTAAR1): Fluorescence-based cell-based high throughput dose response assay to identify hTAAR1 agonist that also desensitize TAAR1 receptor response.; assay type: functional
T3 sequence (Q96RJ0 whole entry): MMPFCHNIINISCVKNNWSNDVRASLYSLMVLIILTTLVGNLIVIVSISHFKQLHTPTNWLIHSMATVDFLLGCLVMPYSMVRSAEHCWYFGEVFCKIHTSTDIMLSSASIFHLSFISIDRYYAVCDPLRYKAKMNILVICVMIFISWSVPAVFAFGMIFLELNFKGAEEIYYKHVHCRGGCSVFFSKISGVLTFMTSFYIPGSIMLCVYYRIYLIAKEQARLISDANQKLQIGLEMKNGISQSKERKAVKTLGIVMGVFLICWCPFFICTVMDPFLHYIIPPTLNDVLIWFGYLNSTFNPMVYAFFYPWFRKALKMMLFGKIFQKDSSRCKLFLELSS

[20] = biological target: T3, Trace amine-associated receptor 1; experiment: Fluorescence-based cell-based high throughput dose response assay to identify agonists of the human trace amine associated receptor 1 (TAAR1).; assay type: functional
cells [21] = assay type: functional, cell-based; remark: listed apart in the source
Paired box protein Pax-8 = Paired box protein Pax-8 (Homo sapiens, UniProt Q06710); experiment: PAX8 transcriptional activity inhibition in RMG-I – RMG-I cells, luciferase, cherry-pick, dose response (AID 687027); assay type: functional, cell-based;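 note: luciferase reporter driven by Pax8 target thyroperoxidase promoter measured by SteadyGlo luminescence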
Chain of Paired box protein Pax-8 (Q06710 whole entry): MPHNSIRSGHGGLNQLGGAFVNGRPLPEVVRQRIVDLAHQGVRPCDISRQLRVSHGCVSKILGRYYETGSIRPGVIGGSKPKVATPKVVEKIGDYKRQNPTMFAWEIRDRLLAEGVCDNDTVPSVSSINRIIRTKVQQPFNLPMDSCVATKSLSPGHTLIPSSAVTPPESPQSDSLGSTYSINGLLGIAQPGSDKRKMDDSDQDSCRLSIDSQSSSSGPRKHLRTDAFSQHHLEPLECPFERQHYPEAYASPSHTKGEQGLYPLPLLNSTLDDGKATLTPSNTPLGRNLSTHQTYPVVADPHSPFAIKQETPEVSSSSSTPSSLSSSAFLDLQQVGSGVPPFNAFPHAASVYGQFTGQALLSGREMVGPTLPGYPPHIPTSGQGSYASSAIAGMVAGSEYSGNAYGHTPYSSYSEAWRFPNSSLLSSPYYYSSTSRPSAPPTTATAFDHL

[22] = IGROV1 cell killing – plate reader, dry powder samples, PAX8 inhibitor project, dose response (AID 743043); assay type: functional, cell-based; conditions: IGROV-1
[23] = OVCAR-3 cell viability loss – plate reader, dry powder samples, PAX8 inhibitor project, dose response (AID 743044); assay type: functional, cell-based
[24] = OVCAR8 cell viability loss – plate reader, dry powder samples, PAX8 project, dose response (AID 743197); assay type: functional, cell-based; conditions: OVCAR-8

T1 sequence (Q00975 whole entry): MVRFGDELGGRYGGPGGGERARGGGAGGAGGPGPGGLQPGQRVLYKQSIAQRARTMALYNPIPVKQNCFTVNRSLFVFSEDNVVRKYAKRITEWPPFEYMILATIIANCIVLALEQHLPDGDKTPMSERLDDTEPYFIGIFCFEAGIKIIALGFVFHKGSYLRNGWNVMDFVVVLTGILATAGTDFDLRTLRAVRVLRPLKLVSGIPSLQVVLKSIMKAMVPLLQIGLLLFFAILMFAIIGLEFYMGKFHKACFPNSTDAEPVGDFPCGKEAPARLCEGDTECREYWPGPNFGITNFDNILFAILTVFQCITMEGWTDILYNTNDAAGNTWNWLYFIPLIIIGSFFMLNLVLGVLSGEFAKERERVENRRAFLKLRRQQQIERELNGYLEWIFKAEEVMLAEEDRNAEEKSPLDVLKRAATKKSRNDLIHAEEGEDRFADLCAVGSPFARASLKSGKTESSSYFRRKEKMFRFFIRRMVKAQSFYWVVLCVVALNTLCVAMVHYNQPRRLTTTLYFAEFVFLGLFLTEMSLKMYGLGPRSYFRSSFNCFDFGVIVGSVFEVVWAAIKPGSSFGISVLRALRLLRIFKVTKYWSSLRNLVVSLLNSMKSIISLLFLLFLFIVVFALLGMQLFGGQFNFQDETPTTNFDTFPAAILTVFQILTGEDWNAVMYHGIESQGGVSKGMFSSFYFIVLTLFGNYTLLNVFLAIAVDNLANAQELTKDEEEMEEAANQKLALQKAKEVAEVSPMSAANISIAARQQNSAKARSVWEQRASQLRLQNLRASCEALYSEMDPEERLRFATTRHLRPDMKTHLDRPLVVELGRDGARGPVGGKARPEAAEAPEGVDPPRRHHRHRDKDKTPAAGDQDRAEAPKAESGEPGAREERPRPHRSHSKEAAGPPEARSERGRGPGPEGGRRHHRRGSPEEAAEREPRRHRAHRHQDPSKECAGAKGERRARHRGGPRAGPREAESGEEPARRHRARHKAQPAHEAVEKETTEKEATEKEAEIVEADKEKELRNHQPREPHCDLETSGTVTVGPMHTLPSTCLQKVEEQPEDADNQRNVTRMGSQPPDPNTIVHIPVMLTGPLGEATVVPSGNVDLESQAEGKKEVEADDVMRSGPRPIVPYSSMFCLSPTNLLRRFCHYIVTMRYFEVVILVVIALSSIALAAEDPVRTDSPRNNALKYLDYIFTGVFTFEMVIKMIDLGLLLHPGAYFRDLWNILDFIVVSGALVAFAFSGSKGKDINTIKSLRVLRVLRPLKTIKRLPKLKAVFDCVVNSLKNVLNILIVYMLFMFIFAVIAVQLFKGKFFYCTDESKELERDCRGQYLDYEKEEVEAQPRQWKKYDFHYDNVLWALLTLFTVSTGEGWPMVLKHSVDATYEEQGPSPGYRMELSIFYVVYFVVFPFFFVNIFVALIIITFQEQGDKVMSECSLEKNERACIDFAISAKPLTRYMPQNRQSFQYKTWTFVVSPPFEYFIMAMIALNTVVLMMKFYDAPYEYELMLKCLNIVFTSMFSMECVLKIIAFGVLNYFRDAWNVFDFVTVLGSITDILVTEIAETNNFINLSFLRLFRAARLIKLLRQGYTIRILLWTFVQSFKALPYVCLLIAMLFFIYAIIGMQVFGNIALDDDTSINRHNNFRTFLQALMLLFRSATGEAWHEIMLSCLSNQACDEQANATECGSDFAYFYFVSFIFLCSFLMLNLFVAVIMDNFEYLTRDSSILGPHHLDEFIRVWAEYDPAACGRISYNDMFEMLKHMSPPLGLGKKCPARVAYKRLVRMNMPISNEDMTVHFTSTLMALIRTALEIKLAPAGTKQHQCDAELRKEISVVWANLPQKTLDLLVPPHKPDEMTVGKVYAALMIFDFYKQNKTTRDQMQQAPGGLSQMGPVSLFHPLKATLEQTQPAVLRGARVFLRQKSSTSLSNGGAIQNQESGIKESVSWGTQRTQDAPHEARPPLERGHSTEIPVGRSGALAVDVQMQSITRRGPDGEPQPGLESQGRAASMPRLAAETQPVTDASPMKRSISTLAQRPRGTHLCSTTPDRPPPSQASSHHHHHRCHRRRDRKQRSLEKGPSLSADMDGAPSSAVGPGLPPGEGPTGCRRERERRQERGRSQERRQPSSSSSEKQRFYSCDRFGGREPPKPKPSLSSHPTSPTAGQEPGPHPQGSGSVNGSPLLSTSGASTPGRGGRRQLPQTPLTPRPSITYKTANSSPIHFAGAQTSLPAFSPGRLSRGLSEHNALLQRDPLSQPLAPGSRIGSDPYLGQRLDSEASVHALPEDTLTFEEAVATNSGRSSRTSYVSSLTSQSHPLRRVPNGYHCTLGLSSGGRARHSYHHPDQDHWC
T1 sequence (Q02410 whole entry): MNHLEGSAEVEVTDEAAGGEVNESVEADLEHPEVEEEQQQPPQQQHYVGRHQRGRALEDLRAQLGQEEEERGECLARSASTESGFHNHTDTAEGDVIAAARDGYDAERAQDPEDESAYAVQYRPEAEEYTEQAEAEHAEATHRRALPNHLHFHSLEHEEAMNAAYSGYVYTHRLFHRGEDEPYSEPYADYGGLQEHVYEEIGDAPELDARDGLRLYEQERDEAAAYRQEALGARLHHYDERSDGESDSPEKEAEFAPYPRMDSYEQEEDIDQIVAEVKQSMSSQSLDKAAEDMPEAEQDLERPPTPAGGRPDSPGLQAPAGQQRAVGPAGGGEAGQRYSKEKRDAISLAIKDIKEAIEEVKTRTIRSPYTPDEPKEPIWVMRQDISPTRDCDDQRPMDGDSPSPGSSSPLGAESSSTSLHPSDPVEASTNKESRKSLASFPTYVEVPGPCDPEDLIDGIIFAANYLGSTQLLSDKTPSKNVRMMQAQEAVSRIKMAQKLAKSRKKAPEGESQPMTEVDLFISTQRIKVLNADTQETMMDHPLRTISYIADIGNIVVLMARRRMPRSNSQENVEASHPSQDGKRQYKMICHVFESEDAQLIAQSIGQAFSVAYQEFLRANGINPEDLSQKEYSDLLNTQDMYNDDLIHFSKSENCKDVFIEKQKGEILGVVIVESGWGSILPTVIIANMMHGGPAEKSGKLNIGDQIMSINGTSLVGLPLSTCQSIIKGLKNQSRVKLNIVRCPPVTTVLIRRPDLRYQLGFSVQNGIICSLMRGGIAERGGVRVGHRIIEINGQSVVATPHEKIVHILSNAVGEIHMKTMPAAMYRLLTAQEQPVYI

With `Cc1ccc2[nH]c(=O)c(C=C3C(=O)NC(=S)NC3=O)cc2c1` the IC50 [1] was 9.32 µM (active) and the IC50 [2] was 42.1 µM (active).
With `O=c1c2ccccc2cnn1CCOc1ccccc1` the EC50 [3] was 1.97 µM (active), the AC50 [4] was 7.2 µM (active) and the AC50 [5] was 2.62 µM (active). The AC50 [6] was > 52 µM (inactive), the AC50 [7] was 45.5 µM (active) and the AC50 [8] was 2.52 µM (active). The AC50 [9] was 48.8 µM (active), the EC50 [10] was 0.392 µM (active) and the EC50 [11] was 4.07 µM (active).
With `O=C(COC(=O)CCOc1ccccc1)Nc1ccc(Cl)cn1` the IC50 (Prothrombin) was 30.8 µM (active).
For `CC1=N/C(=C\c2ccc([N+](=O)[O-])cc2)C(=O)N1c1cc(Cl)ccc1C`, the IC50 (Ephrin type-A receptor 4) was 3.45 µM (active).
With `COc1ccc(CC(=O)n2nc(-c3cccnc3)nc2N)cc1` the IC50 (Prothrombin) was 0.259 µM (active).
In the case of `CC(C)c1ccc(N(C(=O)c2csnn2)C(C(=O)NC2CCCC2)c2ccncc2)cc1` (stereo not given), the AC50 [12] is reported as 1.59 µM (active), the AC50 [13] is reported as 1.76 µM (active) and the AC50 [14] is reported as 0.654 µM (active). The AC50 [15] was 60.5 µM (active) and the AC50 [16] was 0.795 µM (active).
In the case of `O=C(CN1CCN(C(=O)CNC(=O)c2ccc(-c3ccccc3)cc2)CC1)Nc1ccccc1Cl`, the AC50 [5] is reported as 48.1 µM (active), the AC50 [6] is reported as 31.7 µM (active) and the AC50 [7] is reported as 24.9 µM (active). The AC50 [8] was 43.4 µM (active) and the AC50 [9] was 30.1 µM (active).
In the case of `C[C@H](CO)N1C[C@H](C)[C@H](CN(C)Cc2ccc(C(F)(F)F)cc2)Oc2ccc(NC(=O)Nc3ccc(F)cc3)cc2C1=O`, the AC50 [5] is reported as 26.4 µM (active), the AC50 [6] is reported as 28 µM (active) and the AC50 [7] is reported as 23.1 µM (active). For the same compound, the AC50 [17] was 5.6 µM (active) and the AC50 [8] was 33.1 µM (active).
With `COc1ccccc1CCn1cnc(-c2ccc(Br)cc2)c1CC(C)C` the IC50 (cells [18]) was 25.7 µM (inactive), the IC50 [19] was 7.08 µM (active) and the EC50 [20] was 1.75 µM (active). For the same compound, the EC50 (cells [21]) was > 29.9 µM (inactive).
In the case of `C[C@@H]1CN([C@@H](C)CO)C(=O)Cc2cc(NS(=O)(=O)c3ccc(F)cc3)ccc2O[C@H]1CN(C)Cc1ccc(C(F)(F)F)cc1`, the AC50 (Paired box protein Pax-8) is reported as 4.76 µM (active), the AC50 [22] is reported as 29.2 µM (active) and the AC50 [23] is reported as 19.7 µM (active). For the same compound, the AC50 [24] was 26.9 µM (active).
In the case of `O=C(C[C@H]1C[C@@H]2c3cc(NC(=O)Nc4ccc(C(F)(F)F)cc4)ccc3O[C@@H]2[C@@H](CO)O1)NCc1ccc(Cl)cc1`, the AC50 (Paired box protein Pax-8) is reported as 7.85 µM (active), the AC50 [22] is reported as 40.9 µM (active) and the AC50 [23] is reported as 61.1 µM (active).
